In one assay the target is T1, wildtype human ASIC1a (Homo sapiens, UniProt P78348).
T1 construct: expressed in transfected cells; host or cells: Xenopus laevis oocytes (nuclear injection of pMT3 expression plasmid)
T1 sequence (P78348 1-528): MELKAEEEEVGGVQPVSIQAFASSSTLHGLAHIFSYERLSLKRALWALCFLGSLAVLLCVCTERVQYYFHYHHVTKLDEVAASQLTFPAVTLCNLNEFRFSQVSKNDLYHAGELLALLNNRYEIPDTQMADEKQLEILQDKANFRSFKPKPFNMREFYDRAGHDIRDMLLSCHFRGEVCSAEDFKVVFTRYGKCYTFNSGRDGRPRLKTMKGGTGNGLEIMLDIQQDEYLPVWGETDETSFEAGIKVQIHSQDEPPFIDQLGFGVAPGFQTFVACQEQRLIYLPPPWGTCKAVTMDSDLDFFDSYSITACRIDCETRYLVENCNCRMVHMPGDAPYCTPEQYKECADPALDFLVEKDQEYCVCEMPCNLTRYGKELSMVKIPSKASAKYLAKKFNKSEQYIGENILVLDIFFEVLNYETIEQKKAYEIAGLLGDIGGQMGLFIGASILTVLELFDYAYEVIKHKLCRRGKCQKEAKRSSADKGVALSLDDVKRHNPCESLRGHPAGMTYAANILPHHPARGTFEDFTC
The assay can be described thus: FRRFa modulation of acid-evoked currents, two-electrode voltage clamp in Xenopus oocytes. The class given is cell-based. The protocol:
(§1) The Stratagene QuikChange® site-directed mutagenesis kit (Cedar Creek, TX) was used to introduce point mutations into the human ASIC1a cDNA (GENBANK accession number NM_001095) within the pMT3 expression vector. Mutations were confirmed by DNA sequencing at the Plant-Microbe Genomics Facility at The Ohio State University and high quality plasmid DNA was prepared for injection using Qiagen (Valencia, CA) Midi prep kits. Female Xenopus laevis were purchased from Xenopus I (Dexter, MI) and Xenopus oocytes were isolated using standard procedures. This work was implemented in accordance with the Guide for the Care and Use of Laboratory Animals of the National Institutes of Health and approved by the Institutional Animal Care and Use Committee of The Ohio State University (protocol # 2009A0161-R1). The oocyte removal surgery was performed under tricaine methanesulfonate (MS222) anesthesia and all efforts were made to minimize suffering. Ovarian lobes were removed and digested for 1.5-2 hours at room temperature with 1.2 mg/ml collagenase in Modified Barth’s solution lacking calcium (24 mM NaHCO3, 88 mM NaCl, 15 mM HEPES, 1 mM KCl, 0.8 mM MgSO4, 125 units/liter penicillin/streptomycin) to separate individual oocytes and remove follicular membranes. Healthy stage IV and V oocytes were selected and maintained in Modified Barth’s solution containing calcium (0.4 mM CaCl2 and 0. 3 mM Ca(NO3)2). The nuclei of isolated oocytes were injected with ~5 ng of a 100 ng/µl stock of wildtype or mutant ASIC1a expression plasmids using a PV820 pneumatic picopump (World Precision Instruments, Sarasota, FL). Oocytes were incubated at 18 °C for 18-96 hours before experiments were performed. […]
(§2) In order to obtain the pH dependence of activation, basal pH was maintained at pH 7.4. […] Peak current amplitude was measured for each test pH and normalized to the average peak amplitude of flanking pH 5.0 currents to minimize the impact of potential tachyphylaxis. […] As before, maximal currents were measured before and after test conditioning pH to minimize the effect of possible tachyphylaxis of proton-gated current. […]
On the technique in general: In two-electrode clamp one electrode senses voltage and the other passes current.

Assay [1] deals with T2, human ASIC1a L280C (Homo sapiens, UniProt P78348, L280C).
T2 construct: expressed in transfected cells; host or cells: Xenopus laevis oocytes (nuclear injection of pMT3 expression plasmid)
T2 sequence (P78348 1-528 L280C): T1 sequence (P78348 1-528) with L280C
Put plainly: FRRFa / FRRF (no amide) modulation of acid-evoked currents, two-electrode voltage clamp in Xenopus oocytes. The class given is cell-based. The protocol:
as §1, §2

For assay [2], the target named is T2, human ASIC1a L280C. Put plainly: Peptide-MTSET competition (MTSET modification in presence of peptide, residual current read-out). The class given is cell-based. The protocol:
The Stratagene QuikChange® site-directed mutagenesis kit (Cedar Creek, TX) was used to introduce point mutations into the human ASIC1a cDNA (GENBANK accession number NM_001095) within the pMT3 expression vector. Mutations were confirmed by DNA sequencing at the Plant-Microbe Genomics Facility at The Ohio State University and high quality plasmid DNA was prepared for injection using Qiagen (Valencia, CA) Midi prep kits. Female Xenopus laevis were purchased from Xenopus I (Dexter, MI) and Xenopus oocytes were isolated using standard procedures. This work was implemented in accordance with the Guide for the Care and Use of Laboratory Animals of the National Institutes of Health and approved by the Institutional Animal Care and Use Committee of The Ohio State University (protocol # 2009A0161-R1). The oocyte removal surgery was performed under tricaine methanesulfonate (MS222) anesthesia and all efforts were made to minimize suffering. […]
Vehicle or 100 µM peptide was applied for 1 minute at pH 7.4. […] Before residual current was measured, oocytes were washed with at least 50 mL of pH 7.4 over 10 minutes in order to remove peptides. […]

The subject of another assay is wildtype ASIC1a. The assay can be described thus: MTSET exposure, two-electrode voltage clamp in Xenopus oocytes. The class given is cell-based, human. The protocol:
(§3) The Stratagene QuikChange® site-directed mutagenesis kit (Cedar Creek, TX) was used to introduce point mutations into the human ASIC1a cDNA (GENBANK accession number NM_001095) within the pMT3 expression vector. Mutations were confirmed by DNA sequencing at the Plant-Microbe Genomics Facility at The Ohio State University and high quality plasmid DNA was prepared for injection using Qiagen (Valencia, CA) Midi prep kits. Female Xenopus laevis were purchased from Xenopus I (Dexter, MI) and Xenopus oocytes were isolated using standard procedures. This work was implemented in accordance with the Guide for the Care and Use of Laboratory Animals of the National Institutes of Health and approved by the Institutional Animal Care and Use Committee of The Ohio State University (protocol # 2009A0161-R1). The oocyte removal surgery was performed under tricaine methanesulfonate (MS222) anesthesia and all efforts were made to minimize suffering. Ovarian lobes were removed and digested for 1.5-2 hours at room temperature with 1.2 mg/ml collagenase in Modified Barth’s solution lacking calcium (24 mM NaHCO3, 88 mM NaCl, 15 mM HEPES, 1 mM KCl, 0.8 mM MgSO4, 125 units/liter penicillin/streptomycin) to separate individual oocytes and remove follicular membranes. Healthy stage IV and V oocytes were selected and maintained in Modified Barth’s solution containing calcium (0.4 mM CaCl2 and 0. 3 mM Ca(NO3)2). The nuclei of isolated oocytes were injected with ~5 ng of a 100 ng/µl stock of wildtype or mutant ASIC1a expression plasmids using a PV820 pneumatic picopump (World Precision Instruments, Sarasota, FL). Oocytes were incubated at 18 °C for 18-96 hours before experiments were performed.
The two-electrode voltage clamp technique was used to measure whole cell currents from Xenopus oocytes heterologously expressing ASIC1a channels as described. Electrodes were pulled using a Sutter P-97 micropipette puller (Sutter Instrument Co., Novato, CT) and filled with 3 M KCl (pipette resistance of 0.5–2 MΩ). Oocyte recordings were done in a modified RC-Z3 250 µl oocyte recording chamber (Warner Instruments, Hamden, CT). Data were acquired using an Oocyte Clamp OC-725 Amplifier (Warner Instruments, Hamden, CT) and a Powerlab 4SP digitizer with CHART5 software (ADI Instruments, Colorado Springs, CO). […]
as §2

Assay [3] concerns the target T2, human ASIC1a L280C. The assay can be described thus: MTSET modification of the cysteine mutant (residual current read-out), closed vs desensitized state. The class given is cell-based. The protocol:
as §3
The two-electrode voltage clamp technique was used to measure whole cell currents from Xenopus oocytes heterologously expressing ASIC1a channels as described. Electrodes were pulled using a Sutter P-97 micropipette puller (Sutter Instrument Co., Novato, CT) and filled with 3 M KCl (pipette resistance of 0.5–2 MΩ). Oocyte recordings were done in a modified RC-Z3 250 µl oocyte recording chamber (Warner Instruments, Hamden, CT). Data were acquired using an Oocyte Clamp OC-725 Amplifier (Warner Instruments, Hamden, CT) and a Powerlab 4SP digitizer with CHART5 software (ADI Instruments, Colorado Springs, CO). Except where noted, the extracellular solution contained (in mM): 116 NaCl, 2 KCl, 5 HEPES, 5 MES, 2 CaCl2, 1 MgCl2, with pH adjusted using 1N NaOH. The solution exchange rate in the recording chamber was ~1 ml/s. The holding potential was -60 mV unless otherwise noted. [2-(Trimethylammonium)ethyl] Methanethiosulfonate Bromide (MTSET) was purchased from Toronto Research Chemicals, Inc. (Ontario, Canada). FRRFamide peptide (FRRFa) and FRRF (no amide) were synthesized from EZBiolab, Inc. (Westfield, IN).
Oocytes were maintained at a basal pH of 7.4 and maximal currents were established with application of pH 5.0. Currents were allowed to decay for at least 60 s. The control residual current was determined by normalizing the current remaining at 60 s to the peak amplitude (Iresidual/Itransient). After recovery, 300 µM MTSET was applied at pH 7.4 for the indicated duration and excess MTSET was washed away with at least 10 mL of pH 7.4 solution. The pH-dependence of activation and steady-state desensitization were measured as described above. During experiments using MTSET, the effect on residual current decreased slightly over time. […]

Assay [4] addresses T3, human acid-sensing ion channel 1a (hASIC1a), wild type (human) (UniProt P78348).
T3 sequence: T1 sequence (P78348 1-528)

Assay [5] concerns the target T4, human ASIC1a L280C (human) (UniProt P78348).
T4 sequence: T1 sequence (P78348 1-528) with L280C

This note sets out measurements from paper PMC3743763, “Conformational Changes in the Lower Palm Domain of ASIC1a Contribute to Desensitization and RFamide Modulation” (PLoS ONE, 2013).

Numbering of substitutions follows the chain as printed. Residues, ends and D or L forms follow the SMILES beside them. No end group written: not given here. Some results are limits rather than exact numbers.

What is called EC50 is the concentration that produces a half-maximal response.

With `N=C(N)NCCC[C@H](NC(=O)[C@H](CCCNC(=N)N)NC(=O)[C@@H](N)Cc1ccccc1)C(=O)N[C@@H](Cc1ccccc1)C(N)=O` [FRRFa, FRRFamide] (H-FRRF-NH2), the “increase in τinact with FRRFamide” value at wildtype human ASIC1a (100 µM FRRFa vs control, mean ± SEM, n = 14, SEM) is recorded as 45 ± 6%; on human ASIC1a L280C [1] (100 µM FRRFa vs control, mean ± SEM, n = 17, p = 6x10^-5 vs wildtype, SEM) it was 131 ± 16%. For the same molecule, the “difference in response between 100µM and 300µM FRRFa” value on wildtype human ASIC1a (residual current, n = 5, p = 0.69 paired t-test (not significant)) is listed as 10.42% ± 11.25. In addition, the EC50 turned out to be 20 ± 4 µM at wildtype human ASIC1a (responses normalized to 100 µM FRRFa, mean ± SEM, n = 6-8, SEM, read-out: EC50 of FRRFa modulation (effect on residual current)) and 14 ± 4 µM at human ASIC1a L280C [1] (responses normalized to 100 µM FRRFa, mean ± SEM, n = 6-8, p = 0.34 vs wildtype, SEM, read-out: EC50 of FRRFa modulation (effect on residual current)).

With `C[N+](C)(C)CCSS(C)(=O)=O.[Br-]` [MTSET, [2-(Trimethylammonium)ethyl] Methanethiosulfonate Bromide], on human ASIC1a L280C [2] (300 µM MTSET at pH 7.4 with vehicle), the “time until MTSET modulation plateaued in presence of vehicle” value stood at 5 min. Moreover, the “% residual current after MTS” value with wildtype ASIC1a (300 µM MTSET at pH 7.4, before MTS 0.16 ± 0.05%, n = 3, p = 0.3) amounted to 0.31 ± 0.04%. The “τinact after MTS” value with wildtype ASIC1a (300 µM MTSET at pH 7.4, before MTS 1.8 ± 0.2 s, n = 3, p = 0.9) is given as 1.8 ± 0.2 s. In addition, in the assay on wildtype ASIC1a (300 µM MTSET, before MTS 1.8 ± 0.7%, n = 3, p = 0.2), the “steady-state desensitization, conditioning pH6.7/7.4 after MTS” value is 1.5 ± 0.6%. The “activation pH6.5/5.0 after MTS” value in the assay on wildtype ASIC1a (300 µM MTSET, before MTS 66 ± 10%, n = 3, p = 0.7) turned out to be 62 ± 3%. In addition, the “run down of MTSET effect: decrease in residual current with repeated pH 5.0 applications” value at human ASIC1a L280C [3] (L280C after MTSET modification, n = 8, p = 0.003 paired t-test) is recorded as 17 ± 5%. Also, the “run down of MTSET effect: decrease in inactivation rate with repeated pH 5.0 applications” value on human ASIC1a L280C [3] (L280C after MTSET modification, n = 8, p = 0.01 paired t-test) is on record as 31 ± 9%. Moreover, at human ASIC1a L280C [3] (L280C after MTSET modification, n = 8, p = 0.02 paired t-test), the “run down of MTSET effect: decrease in peak amplitude with repeated pH 5.0 applications” value turned out to be 5%. On human ASIC1a L280C [3] (L280C closed state, pH 6.8, 5.0 mM Ca2+ conditioning, 300 µM MTSET), the “time until MTSET modification observed (increase in residual current)” value is at most 2 min. Moreover, at human ASIC1a L280C [3] (L280C desensitized state, pH 6.8, nominal Ca2+-free conditioning, 300 µM MTSET up to 6 minutes), the “MTSET modification in the desensitized state” value was “did not appreciably modify L280C”.

Turning to “FRRF [FRRF (no amide), peptide FRRF lacking the c-terminal amide, used as a control]”, the “effect of peptide on MTSET modification” value on human ASIC1a L280C [2] (100 µM peptide + 300 µM MTSET at pH 7.4) is “did not interfere with MTSET modification”. Moreover, the “residual current (Iresidual/Itransient)” value at human ASIC1a L280C [1] (100 µM peptide 1 min at pH 7.4 before pH 5.0, current at 60 s normalized to peak, p = 2x10^-6 vs FRRFa) came out at 5.6 ± 0.8%.

B1: FRRFamide peptide (peptide)
peptide: FRRF-NH2
B1: the EC50 of FRRFa modulation of the residual current of pH 5.0-evoked currents (two-electrode voltage clamp, Xenopus oocytes; responses normalised to 100 µM FRRFa) in assay [4] was 20 µM; in assay [5], 14 µM.
